From paper PMC8568133, “Evaluation of bisphenylthiazoles as a promising class for combating multidrug-resistant fungal infections” (PLoS ONE, 2021)
In brackets after ≈: the same amount, converted by molar mass. Like-named read-outs stand apart in the source and are kept apart here.

Tests used:
[1] = parameters: method as in PMID 30247876; conditions: reactive metabolite formation, previous observations; cited from earlier work
MRSA USA300 = tested on: MRSA USA300; parameters: method as in PMID 30247876; conditions: previous observations; cited from earlier work
Candida strains = assay: Minimum fungicidal concentration, summary over Candida strains; format: cell-based; conditions: strains of Table 6
Description: (§1) Serial dilutions (from 128 μg/mL to 0.06 μg/mL) of the tested compounds and control drugs (fluconazole, itraconazole and amphotericin) (in triplicates), were screened against clinical isolates of Candida albicans, Candida auris, Candida glabrata, Candida parapsilosis, Candida tropicalis, Candida krusei, Cryptococcus neoformans, Cryptococcus gattii and Aspergillus fumigatus species using the broth microdilution method according to the Clinical and Laboratory Standards Institute guidelines. MICs were determined as the lowest concentration of the compounds that inhibited the fungal growth by 50% after incubation at 35 °C for 24 h (for Candida and Aspergillus), or 48 h (for Cryptococcus). The minimum fungicidal concentration (MFC) of these compounds was tested by plating 4 μL from wells with no growth onto YPD agar plates. The plates were incubated at 37 °C for 24 hours before recording the MFC, which was categorized as the lowest concentration that reduced fungal growth by 99.9% [45]. The experiment was repeated three independent times.

Candida tropicalis = assay: Antifungal broth microdilution MIC (50% growth inhibition) and MFC; format: cell-based; conditions: Candida tropicalis, ATCC1369, C. tropicalis ATCC 1369
Description: as §1

Candida auris [2] = assay: as above; format: cell-based
Description: as §1

Candida krusei = assay: as above; format: cell-based; conditions: Pichia kudriavzevii; for MIC: read-out: MIC
Description: as §1

Candida albicans = assay: as above; format: cell-based; conditions: Candida albicans; for MIC: read-out: MIC
Description: as §1

Candida auris [3] = assay: Checkerboard assay of compound 17 with standard antifungals; format: cell-based; conditions: for Interpretation of interaction: antifungal combined with compound 17; for MIC Combined, Antifungal: antifungal in combination with compound 17; for MIC: Candidozyma auris, checkerboard, agent alone
Description: To evaluate the interactions between bisphenylthiazoles and the standard antifungal agents (fluconazole, amphotericin B, 5-fluorocytosine and caspofungin) against 2 C. auris clinical isolates, a standard checkerboard assay was utilized as described in previous studies. The fractional inhibitory concentration index (FICI) was calculated for each interaction. Interactions where the FICI was ≤0.5 were categorized as synergistic (SYN). FICI values of >0.5–1.25 were categorized as additive (ADD). FICI values of >1.25–4 were categorized as indifferent, and FICI values of > 4 were categorized as antagonistic. The experiment was repeated three independent times.

Candida parapsilosis = assay: Antifungal broth microdilution MIC (50% growth inhibition); format: cell-based; conditions: Lodderomyces parapsilosis, read-out: MIC
Description: as §1

Cryptococcus neoformans = assay: Antifungal broth microdilution MIC (50% growth inhibition, 48 h); format: cell-based; conditions: Cryptococcus neoformans, read-out: MIC
Description: as §1

Cryptococcus gattii = assay: as above; format: cell-based; conditions: Cryptococcus gattii, read-out: MIC
Description: as §1

[4] = tested on: Lactobacillus casei ATCC-334; assay: Broth microdilution MIC against normal human microbiota; format: cell-based; conditions: Lacticaseibacillus casei, ATCC334
Description: (§2) Broth microdilution was utilized to determine the activity of bisphenylthiazoles against the human gut microflora as described elsewhere. A bacterial solution equivalent to 0.5 McFarland standards was prepared and diluted in MRS broth to achieve a bacterial concentration of approximately 5 x 10^5 CFU/mL. Then, compounds/control antifungals (in triplicates), were added to the plates and serially diluted with media containing bacteria. The plates were incubated for 48 hours at 37 °C before recording the MIC values. The experiment was repeated three independent times.

[5] = tested on: Lactobacillus gasseri HM-400; assay: as above; format: cell-based; conditions: Lactobacillus gasseri, HM400
Description: as §2

[6] = tested on: Lactobacillus crispatus HM-370; assay: as above; format: cell-based; conditions: Lactobacillus crispatus, HM370
Description: as §2

[7] = ATCC10231, C. albicans ATCC 10231
[8] = Candida auris 381 (azole-sensitive)
[9] = Candida auris 385 (azole-resistant)

For `Cc1nc(-c2ccc(-c3ccccc3)cc2)sc1-c1nnc(NN)o1` [Compound 1], the GSH trap [1] is given as “+ve” and the “MIC (MRSA)” value (MRSA USA300) is given as 3 µg/mL (≈ 8.59 µM).

With `OC(Cn1cncn1)(Cn1cncn1)c1ccc(F)cc1F` [Fluconazole, reference compound] the “fungistatic or fungicidal activity” value (Candida strains) was “fungistatic”, the MFC (Candida tropicalis) was greater than 128 µg/mL and the MIC (Candida tropicalis; read-out: MIC) was 0.5 µg/mL (≈ 1.63 µM). The MIC (Candida auris [2]; C. auris 383) was greater than 128 µg/mL, the MIC (Candida auris [2]; C. auris 384) was greater than 128 µg/mL and the MIC (Candida auris [2]; C. auris 385) was greater than 128 µg/mL. The MIC (Candida auris [2]; C. auris 386) was greater than 128 µg/mL, the MIC (Candida auris [2]; C. auris 389) was greater than 128 µg/mL and the MIC (Candida auris [2]; C. auris 390) was greater than 128 µg/mL. For the same compound, the MFC (Candida auris [2]; Candida auris 390) was greater than 128 µg/mL, the MIC (Candida auris [2]; Candidozyma auris, C. auris 381, read-out: MIC) was 1 µg/mL (≈ 3.27 µM) and the MIC (Candida auris [2]; Candidozyma auris, C. auris 382, read-out: MIC) was 8 µg/mL (≈ 26.1 µM). It also gave an MIC (Candida auris [2]; Candidozyma auris, C. auris 387, read-out: MIC) of 8 µg/mL (≈ 26.1 µM), an MFC (Candida auris [2]; Candidozyma auris, Candida auris 389, read-out: MFC) greater than 128 µg/mL and an MIC (Candida krusei; ATCC34135, C. krusei ATCC 34135) of 16 µg/mL (≈ 52.2 µM). For the same compound, the MFC (Candida krusei; C. krusei CAB 396420) was greater than 128 µg/mL, the MIC (Candida krusei; C. krusei CAB 396420) was 16 µg/mL (≈ 52.2 µM) and the MFC (Candida albicans; [7]) was greater than 128 µg/mL. It also gave an MIC (Candida albicans; [7]) of 1 µg/mL (≈ 3.27 µM), an MIC (Candida albicans; C. albicans NR-29448 (fluconazole-resistant)) greater than 128 µg/mL and an MIC (Candida albicans; C. albicans SS5314 (wild-type)) of 1 µg/mL (≈ 3.27 µM). For the same compound, the MFC (Candida albicans; C. albicans NR-29448) was greater than 128 µg/mL, the Interpretation of interaction (Candida auris [3]; [8]) was “ADD (FICI values of >0.5–1.25 were categorized as additive (ADD))” and the “MIC Combined, Antifungal” value (Candida auris [3]; [8]) was 1 µg/mL. The Interpretation of interaction (Candida auris [3]; [9]) was “ADD (FICI values of >0.5–1.25 were categorized as additive (ADD))”, the “MIC Combined, Antifungal” value (Candida auris [3]; [9]) was 0.25 µg/mL and the MIC (Candida auris [3]; [8]) was 1 µg/mL. It also gave an MIC (Candida auris [3]; [9]) greater than 128 µg/mL, an MIC (Candida parapsilosis; ATCC22019, C. parapsilosis ATCC 22019) of 1 µg/mL (≈ 3.27 µM) and an MIC (Candida parapsilosis; C. parapsilosis CAB 502638) of 0.5 µg/mL (≈ 1.63 µM). It also gave an MIC (Cryptococcus neoformans; C. neoformans NR 41298) of 2 µg/mL (≈ 6.53 µM), an MIC (Cryptococcus neoformans; C. neoformans NR 41300) of 1 µg/mL (≈ 3.27 µM) and an MIC (Cryptococcus neoformans; C. neoformans NR 48770) of 2 µg/mL (≈ 6.53 µM). It also gave an MIC (Cryptococcus gattii; C. gattii NR 43209) of 4 µg/mL (≈ 13.1 µM), an MIC (Cryptococcus gattii; C. gattii NR 43210) of 4 µg/mL (≈ 13.1 µM) and an MIC [4] greater than 128 µg/mL. It also gave an MIC [5] greater than 128 µg/mL and an MIC [6] greater than 128 µg/mL.
